ChEMBL document CHEMBL1201862, “PubChem BioAssay data set” (2004)
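Cells were grown in 96-well plates and exposed to each compound for 48 hours at five concentrations; endpoints were interpolated linearly between bracketing concentrations, or set to the highest concentration if not reached. The concentration for 50% growth inhibition is given as GI50.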 The source made the active and inactive calls. Cut-off read from the data, not from the text of the source: active = GI50 up to about 1.1 µM and inactive = higher.

How the values were obtained:
Assay in all cases: inhibition of tumour cell growth, NCI panel, 48 h
A498 = test system: A498
SK-MEL-28 = test system: SK-MEL-28
HCC 2998 = test system: HCC 2998
HT-29 = test system: HT-29
ACHN = test system: ACHN
SN12C = test system: SN12C
SR = test system: SR
OVCAR-8 = test system: OVCAR-8
HOP-62 = test system: HOP-62
EKVX = test system: EKVX
HOP-92 = test system: HOP-92
RXF 393 = test system: RXF 393
KM12 = test system: KM12
HL-60 = test system: HL-60
MDA-MB-435 = test system: MDA-MB-435
SW-620 = test system: SW-620
NCI-H226 = test system: NCI-H226
SF-268 = test system: SF-268
NCI/ADR-RES = test system: NCI/ADR-RES
M14 = test system: M14
NCI-H522 = test system: NCI-H522
HCT-15 = test system: HCT-15
SNB-75 = test system: SNB-75
OVCAR-5 = test system: OVCAR-5
UACC-62 = test system: UACC-62
UO-31 = test system: UO-31
DU-145 = test system: DU-145
MDA-MB-231 = test system: MDA-MB-231
T47D = test system: T47D
MDA-N = test system: MDA-N
HCT-116 = test system: HCT-116
SK-OV-3 = test system: SK-OV-3
SK-MEL-5 = test system: SK-MEL-5
TK-10 = test system: TK-10
SNB-19 = test system: SNB-19
CAKI-1 = test system: CAKI-1
NCI-H23 = test system: NCI-H23
COLO 205 = test system: COLO 205
UACC-257 = test system: UACC-257
Malme-3M = test system: Malme-3M
NCI-H460 = test system: NCI-H460
LOX IMVI = test system: LOX IMVI
A549 = test system: A549
MCF7 = test system: MCF7
SF-295 = test system: SF-295
PC-3 = test system: PC-3
K562 = test system: K562
OVCAR-3 = test system: OVCAR-3
RPMI-8226 = test system: RPMI-8226
SK-MEL-2 = test system: SK-MEL-2
SF-539 = test system: SF-539
CCRF-CEM = test system: CCRF-CEM
Hs-578T = test system: Hs-578T
786-0 = test system: 786-0

In the case of `COC1=CC(=O)C(C2(OC(C)C)OC(=O)C(Cl)=C2Cl)=CC1=O` (centres undefined), the GI50 (A498) is reported as > 100 µM (inactive), the GI50 (SK-MEL-28) is reported as > 100 µM (inactive) and the GI50 (HCC 2998) is reported as > 100 µM (inactive). For the same molecule, the GI50 (HT-29) was > 100 µM (inactive), the GI50 (ACHN) was 51.4 µM (inactive) and the GI50 (SN12C) was > 100 µM (inactive). For the same molecule, the GI50 (SR) was 0.0115 µM (active), the GI50 (OVCAR-8) was 24.9 µM (inactive) and the GI50 (HOP-62) was > 100 µM (inactive). The GI50 (EKVX) was > 100 µM (inactive), the GI50 (HOP-92) was > 100 µM (inactive) and the GI50 (RXF 393) was > 100 µM (inactive). For the same molecule, the GI50 (KM12) was > 100 µM (inactive), the GI50 (HL-60) was < 0.01 µM (active) and the GI50 (MDA-MB-435) was 41.3 µM (inactive). The GI50 (SW-620) was > 100 µM (inactive), the GI50 (NCI-H226) was > 100 µM (inactive) and the GI50 (SF-268) was > 100 µM (inactive). For the same molecule, the GI50 (NCI/ADR-RES) was > 100 µM (inactive), the GI50 (M14) was > 100 µM (inactive) and the GI50 (NCI-H522) was 25.8 µM (inactive). The GI50 (HCT-15) was > 100 µM, the GI50 (SNB-75) was > 100 µM (inactive) and the GI50 (OVCAR-5) was > 100 µM (inactive). The GI50 (UACC-62) was > 100 µM (inactive), the GI50 (UO-31) was 74.5 µM (inactive) and the GI50 (DU-145) was > 100 µM (inactive). The GI50 (MDA-MB-231) was > 100 µM (inactive), the GI50 (T47D) was > 100 µM (inactive) and the GI50 (MDA-N) was 49.1 µM (inactive). The GI50 (HCT-116) was > 100 µM (inactive), the GI50 (SK-OV-3) was > 100 µM (inactive) and the GI50 (SK-MEL-5) was > 100 µM (inactive). The GI50 (TK-10) was > 100 µM (inactive), the GI50 (SNB-19) was > 100 µM (inactive) and the GI50 (CAKI-1) was > 100 µM (inactive). For the same molecule, the GI50 (NCI-H23) was > 100 µM (inactive), the GI50 (COLO 205) was > 100 µM (inactive) and the GI50 (UACC-257) was > 100 µM (inactive). For the same molecule, the GI50 (Malme-3M) was > 100 µM (inactive), the GI50 (NCI-H460) was > 100 µM (inactive) and the GI50 (LOX IMVI) was 64.1 µM (inactive). For the same molecule, the GI50 (A549) was > 100 µM (inactive), the GI50 (MCF7) was > 100 µM (inactive) and the GI50 (SF-295) was > 100 µM (inactive). For the same molecule, the GI50 (PC-3) was > 100 µM (inactive), the GI50 (K562) was < 0.01 µM (active) and the GI50 (OVCAR-3) was > 100 µM (inactive). For the same molecule, the GI50 (RPMI-8226) was > 100 µM (inactive), the GI50 (SK-MEL-2) was 29.4 µM (inactive) and the GI50 (SF-539) was > 100 µM (inactive). The GI50 (CCRF-CEM) was 82.4 µM (inactive), the GI50 (Hs-578T) was > 100 µM (inactive) and the GI50 (786-0) was 28.9 µM (inactive).
